# Assay results: patent publication US20160046603A1, “Crystalline Forms of D-Glucitol, 1-Deoxy-1-(Methylamino)-, 1-(6-Amino-3,5-Difluoropyridine-2-Yl)-8-Chloro-6-Fluoro-1,4-Dihydro-7-(3-Hydroxyazetidin-1-Yl)-4-Oxo-3-Quinolinecarboxylate” (MELINTA THERAPEUTICS, INC., priority 2013, published 2016)
# Tests used:
# [1] = over the parent acid; cited from earlier work
# [2] = test system: Gram-negative and Gram-negative bacteria; conditions: cited from earlier work
# [3] = test system: topoisomerase and gyrase; conditions: cited from earlier work
# [4] = Phase 2 trials, nearly 1,400 patients; cited from earlier work
# [5] = Intrinsic dissolution rate; assay type: physicochemical
# Procedure: Approximately 100 mg of the pure test compound was compressed under high pressure (7 ton), using a constructed die. No additives were added, thus avoiding any external interference in the intrinsic dissolution profile. The resulting non-disintegrating disc was transferred to the dissolution apparatus, Distek model 5100 premiere dissolution system, containing 900 mL of pH 5 buffer with 15 mM hexadecyl trimethyl ammonium bromide (HTAB), pre-heated to 37° C. The stirring speed of the paddle was set to 50 rpm. The solution was sampled at set time points with the resulting aliquots analyzed directly by HPLC, with reference to standard solutions. 5 standards, with concentrations ranging from 0.03 to 0.005 mg/mL in deionized water, and the sample solutions were injected, together with blank injections of the deionized water. The concentration was calculated using the peak areas determined by integration of the peak found at the same retention time as the principal peak in the standard injection.
# [6] = Solid-state stability / polymorph conversion followed by XRPD; assay type: physicochemical; conditions: for thermodynamic stability: Form 1A versus Form 1B
# Procedure: X-Ray Powder Diffraction patterns were collected on a Bruker AXS C2 GADDS diffractometer using Cu Kα radiation (40 kV, 40 mA), automated XYZ stage, laser video microscope for auto-sample positioning and a HiStar 2-dimensional area detector. X-ray optics consists of a single Gael multilayer mirror coupled with a pinhole collimator of 0.3 mm. A weekly performance check was carried out using a certified standard NIST 1976 Corundum (flat plate). Similar instruments can be used to obtain XRPD patterns.
# The beam divergence, i.e. the effective size of the X-ray beam on the sample, was approximately 4 mm. A θ-θ continuous scan mode was employed with a sample—detector distance of 20 cm which gives an effective 2θ range of 3.2°-29.7°. The samples were exposed to the X-ray beam for approximately 120 seconds. The software used for data collection was GADDS for WNT 4.1.16 and the data were analyzed and presented using Diffrac Plus EVA v11.0.0.2 or v13.0.0.2.
# Samples run under ambient conditions were prepared as flat plate specimens using powder as received without grinding. Approximately 1-2 mg of the sample was lightly pressed on a glass slide to obtain a flat surface.
# [7] = Modulated differential scanning calorimetry (mDSC); assay type: physicochemical; conditions: mDSC thermogram, FIG. 4
# Procedure: DSC data were collected on a TA Instruments Q2000 equipped with a 50 position autosampler. Similar instruments can be used to collect DSC data. The calibration for thermal capacity was carried out using sapphire and the calibration for energy and temperature was carried out using certified indium. Modulated temperature DSC was carried out using an underlying heating rate of 2° C./min and temperature modulation parameters of ±1.2° C. (amplitude) every 60 seconds (period). Typically 0.5-3 mg of each sample, in a pin-holed aluminum pan, was heated at […] from 25° C. to 220° C. A purge of dry nitrogen at 50 ml/min was maintained over the sample. The instrument control software was Advantage for Q Series v2.8.0.392 and Thermal Advantage v4.8.3 and the data were analyzed using Universal Analysis v4.4A.
structure (smiles),measurement,setting,value
"CNC[C@H](O)[C@@H](O)[C@H](O)[C@H](O)CO.Nc1nc(-n2cc(C(=O)O)c(=O)c3cc(F)c(N4CC(O)C4)c(Cl)c32)c(F)cc1F [D-glucitol, 1-deoxy-1-(methylamino)-, 1-(6-amino-3,5-difluoropyridin-2-yl)-8-chloro-6-fluoro-1,4-dihydro-7-(3-hydroxyazetidin-1-yl)-4-oxo-3-quinolinecarboyxlate]","solubility, dissolution and bioavailability",[1],"improved solubility, dissolution and bioavailability"
"Nc1nc(-n2cc(C(=O)O)c(=O)c3cc(F)c(N4CC(O)C4)c(Cl)c32)c(F)cc1F [Delafloxacin, 1-deoxy-1-(methylamino)-, 1-(6-amino-3,5-difluoropyridin-2-yl)-8-chloro-6-fluoro-1,4-dihydro-7-(3-hydroxyazetidin-1-yl)-4-oxo-3-quinolinecarboyxlate]",potency against bacteria,[2],highly potent
same,inhibition of topoisomerase and gyrase enzyme targets,[3],balanced inhibition
same,tolerance and safety,[4],good tolerance and safety
"CNC[C@H](O)[C@@H](O)[C@H](O)[C@H](O)CO.Nc1nc(-n2cc(C(=O)O)c(=O)c3cc(F)c(N4CC(O)C4)c(Cl)c32)c(F)cc1F [Form 1A, D-glucitol, 1-deoxy-1-(methylamino)-, 1-(6-amino-3,5-difluoropyridin-2-yl)-8-chloro-6-fluoro-1,4-dihydro-7-(3-hydroxyazetidin-1-yl)-4-oxo-3-quinolinecarboyxlate]",dissolution characteristics,[5]; Form 1A versus Form 1B,improved dissolution characteristics
same,thermodynamic stability,[6],thermodynamic stability over Form 1B
"CNC[C@H](O)[C@@H](O)[C@H](O)[C@H](O)CO.Nc1nc(-n2cc(C(=O)O)c(=O)c3cc(F)c(N4CC(O)C4)c(Cl)c32)c(F)cc1F [Form 1B, D-glucitol, 1-deoxy-1-(methylamino)-, 1-(6-amino-3,5-difluoropyridin-2-yl)-8-chloro-6-fluoro-1,4-dihydro-7-(3-hydroxyazetidin-1-yl)-4-oxo-3-quinolinecarboyxlate]",initial dissolution rate (intrinsic dissolution profile),"[5]; compressed disc, 900 mL pH 5 buffer with 15 mM HTAB, 37° C., 50 rpm, compared with the other phase",significantly faster initial dissolution rates
same,dissociation to the free acid post IDR,[5]; confirmed by 1H NMR analyses post IDR,almost complete dissociation to the free acid
same,non-reversible transition of Form 1B to Form 1A,[7],about 94 °C
same,thermodynamic stability,[6],metastable
same,conversion of polymorphic form,"[6]; exposure to humidity and heat, followed by XRPD b-axis reflections",converts to crystalline anhydrous Form 1A delafloxacin meglumine on exposure to humidity and heat
